Measured values: patent US12692274B2, “Tetrahydroisoquinoline derivatives for the treatment of red blood disorders and inflammatory diseases” (Sanofi, priority 2020, dated 2026)
Values joined by “and” are separate entries in the source; they are usually repeats but may differ in a detail not shown here. Equal entries are not always repeated.

What was measured:
[1] = test system: NQO1 activation in BEAS-2B cells; assay: BEAS-2B cellular MTT assay of NQO1 activation, 0.3% HSA; type: cell-based
Method in brief: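 MTT read-out in BEAS-2B cells grown in BEBM with SingleQuots, no GA-1000, kept below 70% confluence; plates coated with collagen, with 0.3% or 0% HSA medium, seeded to 95-100% confluency at 48 h, 37 °C, 5% CO2.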

[2] = test system: NQO1 activation in BEAS-2B cells; assay: BEAS-2B cellular MTT assay of NQO1 activation, 0% HSA; type: cell-based
Method in brief: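 For the 0% HSA condition, cells were seeded into collagen plates in HSA-free medium. Culture was BEAS-2B in BEBM plus BEGM SingleQuots lacking GA-1000, held under 70% confluence, at a seeding density reaching 95-100% confluence by 48 h.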

[3] = biological target: HIS-Keap1 full length / Biotin-Nrf2 (16-mer) (Homo sapiens, UniProt Q14145); assay: biochemical
Sequence of HIS-Keap1 full length / Biotin-Nrf2 (16-mer) (Q14145 whole entry): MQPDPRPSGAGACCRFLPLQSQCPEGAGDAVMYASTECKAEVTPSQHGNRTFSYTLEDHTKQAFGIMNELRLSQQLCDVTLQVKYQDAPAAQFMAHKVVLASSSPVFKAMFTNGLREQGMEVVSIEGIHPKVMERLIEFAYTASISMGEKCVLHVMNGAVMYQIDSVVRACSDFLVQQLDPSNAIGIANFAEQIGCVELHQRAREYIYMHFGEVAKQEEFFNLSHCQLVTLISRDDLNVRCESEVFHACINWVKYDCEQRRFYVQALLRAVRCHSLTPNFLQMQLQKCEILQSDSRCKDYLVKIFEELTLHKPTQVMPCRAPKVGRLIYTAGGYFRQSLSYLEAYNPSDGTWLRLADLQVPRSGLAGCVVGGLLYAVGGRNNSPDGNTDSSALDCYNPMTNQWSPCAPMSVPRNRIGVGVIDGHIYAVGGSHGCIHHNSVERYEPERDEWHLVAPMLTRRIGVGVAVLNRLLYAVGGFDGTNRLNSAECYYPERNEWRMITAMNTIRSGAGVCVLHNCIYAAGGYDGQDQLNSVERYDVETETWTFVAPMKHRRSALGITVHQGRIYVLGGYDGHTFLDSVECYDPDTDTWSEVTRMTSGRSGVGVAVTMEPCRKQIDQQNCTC

[4] = BEAS+ W, read-out: BEAS+ W EC50
[5] = Homo sapiens, BEAS+ W, read-out: BEAS+ W EC50
[6] = Homo sapiens, Serum Free W, read-out: BEAS EC50 (nM) Serum Free W
[7] = Serum Free W, read-out: BEAS EC50 (nM) Serum Free W
[8] = Homo sapiens, BEAS+, read-out: BEAS+ EC50
[9] = Homo sapiens, serum free, read-out: BEAS EC50 (nM) serum free
[10] = serum free, read-out: BEAS EC50 (nM) serum free

SMILES | EC50 [1, 4] [nM] | EC50 [1, 5] [nM] | EC50 [2, 6] [nM] | EC50 [2, 7] [nM] | IC50 [3] | EC50 ([1]; BEAS+, read-out: BEAS+ EC50) [nM] | EC50 [1, 8] [nM] | EC50 [2, 9] [nM] | EC50 [2, 10] [nM]
Cc1c2cnc3c1nnn3CCCCCCc1ccc3c(c1)cc(n3C)C(=O)N1CCc3ccc(cc3C1)C2CC(=O)O (centres unmarked) [Compound 135] | 11.8 | 18.9 | 1.9 | 1.8 | 0.9 nM and 1.2 nM | – | – | – | –
Cc1c2ccc3c1nnn3CCCCCCn1ccc3ccc(cc31)C(=O)N1CCc3ccc(cc3C1)C2CC(=O)O (centres unmarked) [Compound 394] | – | – | – | – | 9 nM and 10.4 nM | 2860 | 2690 | 3100 | 2900
Cc1cc2ccc1C(=O)N1CCc3ccc(cc3C1)[C@@H](CC(=O)O)c1ccc3c(nnn3CCC/C=C/C2)c1C [Compound 392] | – | – | – | – | 0.5 nM | 15.5 | 13.7 | 10.6 | 10.3
O=C(O)CC1c2cnc(nc2)OCCCCCc2ccc(c(F)c2)C(=O)N2CCc3ccc1cc3C2 (centres unmarked) [Compound 238] | – | – | – | – | 6.2 nM | 603 | 572 | 571 | 377
Cc1c2ccc3c1nnn3CCCCCOc1ccc(c(F)c1)C(=O)N1CCc3ccc(cc3C1)[C@@H]2CC(=O)O [Compound 254] | – | – | – | – | 1.8 nM | 22.6 | 16.4 | 16 | 17.2
Cc1c2ccc3c1nnn3CCCOCCOc1ccc(c(F)c1)C(=O)N1CCc3ccc(cc3C1)C2CC(=O)O (centres unmarked) [Compound 383] | – | – | – | – | 0.9 nM | 187 | 196 | 179 | 162
Cc1cc2ccc1C(=O)N1CCc3ccc(cc3C1)C(CC(=O)O)c1ccc(nc1)OCCCCCCO2 (centres unmarked) [Compound 301] | – | – | – | – | 6.8 nM and 6 nM | 214 | 317 | 80.6 | 144
Cc1cc2ccc1C(=O)N1CCc3ccc(cc3C1)C(C(C)(C)C(=O)O)c1ccc3c(c1)nnn3CCCCCCO2 (centres unmarked) [Compound 299] | – | – | – | – | < 0.1 nM | – | 3.6 | 0.6 | –
Cc1c2ccc3c1nnn3CCCCCn1ccc3ccc(cc31)C(=O)N1CCc3ccc(cc3C1)C2CC(=O)O (centres unmarked) [Compound 393] | – | – | – | – | 3.8 nM and 4.3 nM | 2250 | 1890 | 2450 | 2110
Cc1cc2ccc1C(=O)N1CCc3ccc(cc3C1)[C@H](CC(=O)O)c1cnc(cc1C)OCCCCC2 [Compound 99] | 79 | 108 | 23.9 | 25.6 | 8.8 nM and 8.4 nM | – | – | – | –
Cc1c2ccc3c1nnn3CCCCCCOc1ccc(cc1F)C(=O)N1CCc3ccc(cc3C1)C2CC(=O)O (centres unmarked) [Compound 270] | – | – | – | – | 4 nM and 3.6 nM | – | 55.9 | 56.5 | –
Cc1c2cnc3c1nnn3CCCCCCOc1cc(F)c(c(F)c1)C(=O)N1CCc3ccc(cc3C1)[C@H]2CC(=O)O [Compound 208] | 27.2 | 25.1 | 10.1 | 14.9 | 1.1 nM | – | – | – | –
Cc1c2cnc3c1nnn3CCCCCc1cccc3c1cc(n3C)C(=O)N1CCc3ccc(cc3C1)C2CC(=O)O (centres unmarked) [Compound 49] | 93.2 | 117 | 27 | 28.8 | 0.6 nM (2×) and 0.4 nM and 0.5 nM | – | – | – | –
Cc1nc2ccc1C(CC(=O)O)c1ccc3c(c1)CN(CC3)C(=O)c1ccc(cc1)CCCCCO2 (centres unmarked) [Compound 150] | – | – | – | – | 113 nM and 106 nM | 188 | 164 | 103 | 147
Cc1c2ccc3c1nnn3CCCCCc1cnc3c(c1)cc(n3C)C(=O)N1CCc3ccc(cc3C1)[C@H]2CC(=O)O [Compound 111] | 101 | 122 | 19 | 19.5 | 0.4 nM and 0.2 nM | – | – | – | –
C[C@@H](C(=O)O)[C@@H]1c2ccc3c(c2)CN(CC3)C(=O)c2c(F)cc(cc2F)OCCCCCCn2nnc3cc1ccc32 [Compound 256] | – | – | – | – | 86.9 nM | – | > 10000 | > 10000 | –
O=C(O)CC1c2ccc(nc2)OCCCCCOc2ccc(c(F)c2)C(=O)N2CCc3ccc1cc3C2 (centres unmarked) [Compound 268] | – | – | – | – | 68.1 nM and 70.7 nM | – | 561 | 505 | –
Cc1cc2ncc1C(CC(=O)O)c1ccc3c(c1)CN(CC3)C(=O)c1ccc(cc1)OCCCCO2 (centres unmarked) [Compound 169] | – | – | – | – | 68.9 nM and 66.2 nM | 175 | 155 | 84.4 | 55.9
C[C@H](C(=O)O)[C@@H]1c2ccc(nc2)OCCCCCc2cc(F)c(c(F)c2)C(=O)N2CCc3ccc1cc3C2 [Compound 162] | – | – | – | – | 2.1 nM and 2 nM | – | 0.8 | 0.6 | –
Cc1c2ccc3c1nnn3CCCCCCc1ccc(c(F)c1)C(=O)N1CCc3ccc(cc3C1)[C@H]2[C@@H](C)C(=O)O [Compound 141] | 7040 | 7200 | > 1000 | – | > 990 nM | – | – | – | –

SMILES | EC50 [1, 4] [nM] | EC50 [1, 5] [nM] | EC50 [2, 6] [nM] | EC50 [2, 7] [nM] | IC50 [3] | EC50 ([1]; BEAS+, read-out: BEAS+ EC50) [nM] | EC50 [1, 8] [nM] | EC50 [2, 9] [nM] | EC50 [2, 10] [nM]
COc1cc2ccc1C(=O)N1CCc3ccc(cc3C1)[C@H](CC(=O)O)c1cnc3c(nnn3CCCCCC2)c1C [Compound 94] | 52.3 | 51 | 36.8 | 63.2 | 1.1 nM and 1.3 nM | – | – | – | –
Cc1c2ccc3c1nnn3CCCOCCOc1cc(F)c(c(F)c1)C(=O)N1CCc3ccc(cc3C1)[C@@H]2[C@H](C)C(=O)O [Compound 366] | – | – | – | – | 5.6 nM and 5.3 nM | 1180 | 1070 | 580 | 442
Cc1c2cnc3c1nnn3CCCCCCc1ccc(cc1)C(=O)N1CCc3ccc(cc3C1)[C@H]2CC(=O)O [Compound 140] | – | – | – | – | 0.3 nM and 0.5 nM | 27.3 | 30.4 | 11.6 | 8.8
COc1cc2ccc1CCCCCn1nnc3c(C)c(cnc31)C(CC(=O)O)c1ccc3c(c1)CN(CC3)C2=O (centres unmarked) [Compound 165] | – | – | – | – | 1.7 nM and 1.6 nM | 21.1 | 26 | 11.7 | 13.3
Cc1cc2ccc1C(=O)N1CCc3ccc(cc3C1)C(CC(=O)O)c1ccc3c(c1)nnn3CCCCCCO2 (centres unmarked) [Compound 332] | – | – | – | – | < 0.1 nM | – | 62.7 | 27.4 | –
C[C@@H](C(=O)O)[C@H]1c2ccc3c(c2)CN(CC3)C(=O)c2c(F)cc(cc2F)OCCCCCCn2nnc3cc1ccc32 [Compound 258] | – | – | – | – | 4.9 nM | 2530 | 2640 | 9080 | 9480
Cc1c2ccc3c1nnn3CCCCCc1ccc(c(F)c1)C(=O)N1CCc3ccc(cc3C1)C2CC(=O)O (centres unmarked) [Compound 266] | – | – | – | – | 0.5 nM | – | 2.6 | 2.1 | –
Cc1c2cnc3c1nnn3CCCCCCc1cccc(c1)C(=O)N1CCc3ccc(cc3C1)C2CC(=O)O (centres unmarked) [Compound 355] | 3860 | 4700 | 810 | 1300 | 9.1 nM and 9.3 nM | – | – | – | –
Cc1c2ccc3c1nnn3CCCCCCc1ccc(c(F)c1)C(=O)N1CCc3ccc(cc3C1)C2CC(=O)O (centres unmarked) [Compound 272] | – | – | – | – | 1.1 nM and 1.3 nM | – | 3.3 | 2.5 | –
Cc1cc2ncc1[C@H](CC(=O)O)c1ccc3c(c1)CN(CC3)C(=O)c1ccc(cc1)COCCCO2 [Compound 78] | 108 | 105 | 43 | 59.3 | 7.6 nM and 6 nM | – | – | – | –
Cc1c2ccc3c1nnn3CCCCCCc1ccc(cc1)C(=O)N1CCc3ccc(cc3C1)[C@@H]2[C@H](C)C(=O)O (racemic) [Compound 200] | – | – | – | – | 87.3 nM and 86.3 nM | 9.3 | 9.5 | 3.4 | 6.5
Cc1c2cnc3c1nnn3CCCCCc1cc(F)c(c(F)c1)C(=O)N1CCc3ccc(cc3C1)[C@@H]2CC(=O)O [Compound 136] | – | – | – | – | 1.4 nM and 1.3 nM | 24.3 | 15 | 10 | 7.3
Cc1c2ccc3c1nnn3CCCCCCOc1ccc(nn1)C(=O)N1CCc3ccc(cc3C1)C2CC(=O)O (centres unmarked) [Compound 380] | – | – | – | – | 5.9 nM and 5.4 nM | 1440 | 1230 | 1460 | 1390
Cc1c2ccc3c1nnn3CCCCCCn1cc(c3ccccc31)C(=O)N1CCc3ccc(cc3C1)C2CC(=O)O (centres unmarked) [Compound 373] | – | – | – | – | 3.6 nM and 3.9 nM | 3140 | 2030 | 2070 | 2030
Cc1c2ccc3c1nnn3CCCCCCc1ccc3c(c1)nc(n3C)C(=O)N1CCc3ccc(cc3C1)C2CC(=O)O (centres unmarked) [Compound 206] | – | – | – | – | 5.3 nM and 5.7 nM | 119 | 89.9 | 64 | 38.5
O=C(O)CC1c2ccc3c(c2)CN(CC3)C(=O)c2ccc(cn2)CCCCCn2nnc3c(Cl)c1ccc32 (centres unmarked) [Compound 220] | – | – | – | – | 1.4 nM and 1.2 nM | 346 | 314 | 178 | 182
Cc1cc2ccc1C(=O)N1CCc3ccc(cc3C1)C(CC(=O)O)c1cnc3c(nnn3CCCCCC2)c1C (centres unmarked) [Compound 170] | – | – | – | – | 6.3 nM and 6.5 nM | 54.3 | 50.1 | 28.3 | 20.4
O=C(O)CC1c2ccc3c(c2)CN(CC3)C(=O)c2ccc(cc2F)OCCCCCCn2nnc3cc1ccc32 (centres unmarked) [Compound 322] | – | – | – | – | 0.8 nM and 1 nM | – | 231 | 176 | –
Cc1c2ccc3c1nnn3CCCCCOc1ccc3ccc(cc3c1)C(=O)N1CCc3ccc(cc3C1)C2CC(=O)O (centres unmarked) [Compound 388] | – | – | – | – | 1.6 nM | 876 | 464 | 51.4 | 44.2
